Values after ≈ are worked out from the molar mass of the structure shown. Read-outs that look alike come from different tables or passages of the source.
Columns and labels:
[1] = system: influenza A and B; settings: administered orally or intraperitoneally; cited from earlier work
[2] = system: Influenza virus A/WSN/33 (H1N1); experiment: microbe, parasite or virus in culture; format: cell-based; settings: viral strain: Influenza virus A/WSN/33 (H1N1), Cell: MDBK, […], 3 days
[3] = system: MDBK cells; settings: Cell: MDBK, no virus; concentration at which 50% of the cells are killed; 4320 min
[4] = in vitro; settings: bovine
[5] = system: A/WSN/33 (H1N1); experiment: Anti-viral activities against subtypes of influenza A and B (plaque number); format: cell-based; settings: Influenza A virus, 72 h
[6] = system: A/Kumamoto/5/67 (H2N2); experiment: microbe, parasite or virus in culture; format: cell-based; settings: Influenza A virus, H2N2, MDCK, 72 h
[7] = system: A/Osaka/5/70 (H3N2); experiment: Anti-viral activities against subtypes of influenza A and B (plaque number); format: cell-based; settings: Influenza A virus, 72 h
[8] = system: A/91/N796 (H3N2); experiment: as above; format: cell-based; settings: Influenza A virus, 72 h
[9] = system: B/91N759; experiment: as above; format: cell-based; settings: Influenza B virus, 72 h
[10] = Cytotoxicity for MDCK cells; format: cell-based; settings: dog, Cell: MDCK, no virus
Procedure: As in the measurement of anti-viral activity, samples were added to the cells, and incubated with 50 µl of culture medium instead of the viral dilution. The results are expressed as CC50 which is defined as the concentration of the compound at which 50% of the cells are killed due to the toxicity of the compound.
MDCK cells (derived from dog kidney) were cultured on 12-well plates using E-MEM supplemented by 10% fetal bovine serum. To each well was added 250 µl each of a viral dilution prepared by 10-fold serial dilution with E-MEM, followed by incubation for one hour under 5% CO2 at 37 °C. After removal of the viral solution, one ml of E-MEM containing 0.8% agarose, 0.5% bovine serum albumin and 2 µg/ml trypsin, and an appropriately diluted test compound was added. The plate was inverted, and incubated for 3 days under 5% CO2 at 37 °C. The number of plaques formed was counted, and the IC50 value, which is the concentration of the compound at which the number of plaques decreases by 50% compared to that of control which lacks the test compound, was determined. As in the above section 2), CC50 values for MDCK cells were determined.

[11] = (1): A/WSN/33 (H1N1), Cell: MDCK, number of plaques decreases by 50%, 3 days, read-out: IC50
[12] = (3): A/Osaka/5/70 (H3N2), Cell: MDCK, number of plaques decreases by 50%, 3 days, read-out: IC50
[13] = (4): A/91/N796 (H3N2), Cell: MDCK, number of plaques decreases by 50%, 3 days, read-out: IC50
[14] = (5): B/91N759, Cell: MDCK, number of plaques decreases by 50%, 3 days, read-out: IC50

CC(=O)N[C@H]1[C@H]([C@H](O)[C@H](O)CO)OC(C(=O)O)=C[C@@H]1NC(=N)N [4-guanidino-Neu5Ac2en]
activity against influenza A and B [1]: has not a satisfactory activity

CCOC(=O)C=CC(=O)Nc1ccc(S(=O)(=O)O[C@H]2C[C@@]34Oc5c(c(O)cc6c5CNC6=O)C[C@]3(C)[C@@H](C)CC[C@H]4C(C)(C)[C@H]2O)cc1 [Compound (50f), (6aR, 7S, 9aS, 11R, 12S, 13aS)-12-[4-(3-ethoxycarbonyl-1-oxo-2-propenyl)amino] phenylsulfonyloxy-2,3,6,6a, 7,8,9,9a, 10, 11, 12, 13-dodecahydro-5, 11-dihydroxy-6a, 7, 10, 10-tetramethyl-3-oxo-1H-benzo[8,8a][1]benzopyrano[2,3-e]isoindole]
IC50 [2]: 0.01 mg/L (≈ 0.0146 µM) | CC50 [3]: 5 mg/L (≈ 7.32 µM)

CC(=O)O[C@@H]1C(=O)C[C@@]23Oc4c(c(O)cc5c4CNC5=O)C[C@]2(C)[C@@H](C)CC[C@H]3C1(C)C [Compound (53a), (6aR, 7S, 9aS, 11S, 13aS)-11-acetoxy-2,3,6,6a, 7,8,9,9a, 10 11, 12, 13-dodecahydro-5-hydroxy-6a, 7, 10, 10-tetramethyl-3,12-dioxo-1H-benzo[8,8a][1]benzopyrano[2,3-e]isoindole]
IC50 [2]: 0.04 to 0.08 mg/L | CC50 [3]: >10 mg/L

C[C@H]1NC(=O)c2cc(O)c3c(c21)O[C@@]12CC[C@H](O)C(C)(C)[C@@H]1CC[C@H](C)[C@@]2(C)C3 [Compound (67b), (1R, 6aR, 7S, 9aS, 11S, 13aS)-2,3,6,6a, 7,8,9,9a, 10, 11, 12, 13-dodecahydro-5, 11-dihydroxy-1,6a, 7, 10, 10-pentamethyl-3-oxo-1H-benzo[8,8a][1]benzopyrano[2,3-e]isoindole]
IC50 ([2]; 72 h, read-out: IC50): 0.032 mg/L (≈ 0.0801 µM) | CC50 [4]: 25 to 50 mg/L (≈ 62.6 to 125 µM)

C[C@H]1CC[C@H]2C(C)(C)[C@H](O)CC[C@]23Oc2c(c(O)cc4c2C(=O)NC4=O)C[C@]13C [Compound (70), (6aR, 7S, 9aS, 11R, 13aS)-2,3,6,6a, 7,8,9,9a, 10, 11, 12, 13-dodecahydro-5, 11-dihydroxy-6a, 7, 10, 10-tetramethyl-13-dioxo-1H-benzo[8,8a][1]benzopyrano[2,3-e]isoindole]
IC50 ([2]; 72 h, read-out: IC50): 0.008 mg/L (≈ 0.02 µM) | CC50 at 72 h ([4]; mdbk cells): 12.5 to 25 mg/L (≈ 31.3 to 62.6 µM)

C[C@H]1CC[C@H]2C(C)(C)[C@@H](O)CC[C@]23Oc2c(c(O)cc4c2CNC4=O)C[C@]13C [SQ-02-S5(2), (6a R, 7S, 9a S, 11 S, 13a S)-2,3,6,6a, 7,8,9,9a, 10, 11, 12, 13-dodecahydro-5, 11-dihydroxy-6a, 7, 10, 10-tetramethyl-3-oxo-1H-benzo[8,8a][1]benzopyrano[2,3-e]isoindole]
IC50 ([5]; MDCK): 0.001 to 0.01 mg/L (≈ 0.00259 to 0.0259 µM) | IC50 [6]: 0.1 to 1 mg/L (≈ 0.259 to 2.59 µM) | IC50 ([7]; H3N2, MDCK): 0.1 to 1 mg/L (≈ 0.259 to 2.59 µM) | IC50 ([8]; H3N2, MDCK): 1 mg/L (≈ 2.59 µM) | IC50 ([9]; MDCK): 1 mg/L (≈ 2.59 µM) | CC50 at 3 days [10]: 25 mg/L (≈ 64.9 µM)

C[C@H]1CC[C@H]2C(C)(C)C(=O)CC[C@]23Oc2c(c(O)cc4c2C(=O)NC4=O)C[C@]13C [SQ-02-S5-OX1(11)]
IC50 [5, 11]: 0.001 to 0.01 mg/L (≈ 0.00252 to 0.0252 µM) | IC50 [6]: 0.01 to 0.1 mg/L (≈ 0.0252 to 0.252 µM) | IC50 [7, 12]: 0.1 to 1 mg/L (≈ 0.252 to 2.52 µM) | IC50 [8, 13]: 1 mg/L (≈ 2.52 µM) | IC50 [9, 14]: 0.1 mg/L (≈ 0.252 µM) | CC50 [10]: 25 to 30 mg/L (≈ 62.9 to 75.5 µM)

C[C@H]1CC[C@H]2C(C)(C)C(=O)CC[C@]23Oc2c(c(O)cc4c2CNC4=O)C[C@]13C [SQ-02-S5-OX2(12)]
IC50 [5, 11]: 0.001 to 0.01 mg/L (≈ 0.00261 to 0.0261 µM) | IC50 [6]: 0.01 to 0.1 mg/L (≈ 0.0261 to 0.261 µM) | IC50 [7, 12]: 1 to 10 mg/L (≈ 2.61 to 26.1 µM) | IC50 [8, 13]: 1 mg/L (≈ 2.61 µM) | IC50 [9, 14]: 0.1 to 1 mg/L (≈ 0.261 to 2.61 µM) | CC50 [10]: 25 to 50 mg/L (≈ 65.2 to 130 µM)
